The values below come from PMC6413118, “Active Components, Antioxidant, Inhibition on Metabolic Syndrome Related Enzymes, and Monthly Variations in Mature Leaf Hawk Tea” (Molecules, 2019).

The assay addresses T1, porcine pancreatic lipase (Sus scrofa, UniProt P00591).
T1 construct: gene PNLIP; EC printed is that of carboxylesterase
T1 sequence (P00591 1-450): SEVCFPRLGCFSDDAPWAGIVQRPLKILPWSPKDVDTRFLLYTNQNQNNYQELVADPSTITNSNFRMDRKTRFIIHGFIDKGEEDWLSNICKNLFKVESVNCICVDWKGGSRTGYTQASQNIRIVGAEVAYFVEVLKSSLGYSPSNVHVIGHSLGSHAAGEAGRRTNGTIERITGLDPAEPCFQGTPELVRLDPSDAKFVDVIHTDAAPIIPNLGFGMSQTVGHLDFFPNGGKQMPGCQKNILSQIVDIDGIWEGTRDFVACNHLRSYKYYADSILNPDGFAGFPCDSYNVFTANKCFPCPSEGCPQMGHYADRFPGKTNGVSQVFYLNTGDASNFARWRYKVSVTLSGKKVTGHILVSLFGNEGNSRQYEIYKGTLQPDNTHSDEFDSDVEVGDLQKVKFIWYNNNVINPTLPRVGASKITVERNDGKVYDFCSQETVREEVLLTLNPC
Briefly: p-nitrophenyl palmitate hydrolysis, absorbance […] nm, microplate. Type of assay: biochemical. To be noted: 10 mM p-nitrophenyl palmitate stock (20 μL), 0.1 M sodium phosphate pH 7, 37 °C, 20 min; unreliable: table and text disagree tenfold.

In the case of `CCCCCCCCCCC[C@@H](C[C@@H]1OC(=O)[C@H]1CCCCCC)OC(=O)[C@H](CC(C)C)NC=O` [Orlistat], the “Lipase IC50” value amounted to 0.6 µg/mL.
